Data taken from ChEMBL document CHEMBL1759971, “Substituted phenyl triazoles as selective inhibitors of 11β-Hydroxysteroid Dehydrogenase Type 1” (Bioorg Med Chem Lett, 2011).

How the values were obtained:
[1] = molecular target: 11-beta-hydroxysteroid dehydrogenase 1 (Mus musculus, UniProt P50172); test: Inhibition of mouse 11beta-HSD1 expressed in CHO-K1 cells assessed as conversion of [3H]cortisone to [3H]cortisol by scintillation counting; assay type: cell-based
Mus musculus [2] = test: Inhibition of 11beta-HSD1 in ICR mouse assessed as conversion of [3H]cortisone to [3H]cortisol at 10 mg/kg, po after 4 hrs by scintillation counting; assay type: functional
[3] = molecular target: T1, 11-beta-hydroxysteroid dehydrogenase type 2 (Mus musculus, UniProt P51661); test: Inhibition of mouse 11beta-HSD2
T1 sequence (P51661 whole entry): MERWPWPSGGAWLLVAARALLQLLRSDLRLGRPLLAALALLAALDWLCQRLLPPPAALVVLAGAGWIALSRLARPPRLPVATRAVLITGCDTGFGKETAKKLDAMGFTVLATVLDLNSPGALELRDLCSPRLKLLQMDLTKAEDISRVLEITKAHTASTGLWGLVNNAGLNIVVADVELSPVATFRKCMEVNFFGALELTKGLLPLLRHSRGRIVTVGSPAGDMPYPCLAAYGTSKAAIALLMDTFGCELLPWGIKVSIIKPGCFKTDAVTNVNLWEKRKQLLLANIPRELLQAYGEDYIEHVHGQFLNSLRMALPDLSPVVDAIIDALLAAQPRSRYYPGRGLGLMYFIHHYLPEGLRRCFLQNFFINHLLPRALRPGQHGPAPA

[4] = molecular target: 11-beta-hydroxysteroid dehydrogenase 1 (Homo sapiens, UniProt P28845); test: Inhibition of human 11beta-HSD1 expressed in CHO-K1 cells assessed as conversion of [3H]cortisone to [3H]cortisol by scintillation counting; assay type: cell-based
Mus musculus [5] = test: Inhibition of 11beta-HSD1 in ICR mouse assessed as conversion of [3H]cortisone to [3H]cortisol at 10 mg/kg, po after 1 hr by scintillation counting; assay type: functional
[6] = molecular target: T2, 11-beta-hydroxysteroid dehydrogenase type 2 (Homo sapiens, UniProt P80365); test: Inhibition of human 11beta-HSD2
T2 sequence (P80365 whole entry): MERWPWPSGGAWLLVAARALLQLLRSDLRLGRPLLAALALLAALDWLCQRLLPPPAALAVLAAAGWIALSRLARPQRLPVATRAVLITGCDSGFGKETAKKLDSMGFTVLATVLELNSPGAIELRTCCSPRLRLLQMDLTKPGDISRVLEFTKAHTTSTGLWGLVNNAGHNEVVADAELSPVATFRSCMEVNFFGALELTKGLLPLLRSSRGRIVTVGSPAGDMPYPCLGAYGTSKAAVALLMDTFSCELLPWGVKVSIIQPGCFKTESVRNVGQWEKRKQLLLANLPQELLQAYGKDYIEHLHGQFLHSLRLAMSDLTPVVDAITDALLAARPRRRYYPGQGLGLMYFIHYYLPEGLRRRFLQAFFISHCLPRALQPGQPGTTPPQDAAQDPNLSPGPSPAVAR

Mus musculus [7] = test: Inhibition of 11beta-HSD1 in ICR mouse assessed as conversion of [3H]cortisone to [3H]cortisol at 10 mg/kg, po after 16 hrs by scintillation counting; assay type: functional
[8] = Oral bioavailability in C57BL/6 mouse; assay type: ADME, organism-based; conditions: in vivo
Cytochrome P450 2D6 = Cytochrome P450 2D6 (Homo sapiens, UniProt P10635); test: Inhibition of CYP2D6; assay type: ADME
[9] = molecular target: T3, Nuclear receptor subfamily 1 group I member 2 (Homo sapiens, UniProt O75469); test: Agonist activity at PXR; assay type: functional
T3 sequence (O75469 whole entry): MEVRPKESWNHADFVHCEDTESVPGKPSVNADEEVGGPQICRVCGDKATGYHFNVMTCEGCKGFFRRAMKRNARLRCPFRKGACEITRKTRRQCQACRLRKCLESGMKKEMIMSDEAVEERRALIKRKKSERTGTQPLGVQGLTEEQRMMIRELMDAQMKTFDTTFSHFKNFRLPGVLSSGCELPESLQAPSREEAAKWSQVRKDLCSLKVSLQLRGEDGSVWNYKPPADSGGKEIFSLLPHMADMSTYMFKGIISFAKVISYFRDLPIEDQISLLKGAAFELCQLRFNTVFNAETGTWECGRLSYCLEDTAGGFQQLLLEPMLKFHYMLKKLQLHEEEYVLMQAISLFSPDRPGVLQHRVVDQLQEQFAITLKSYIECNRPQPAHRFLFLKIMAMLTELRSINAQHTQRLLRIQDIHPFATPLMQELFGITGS

Cytochrome P450 3A4 = Cytochrome P450 3A4 (Homo sapiens, UniProt P08684); test: Inhibition of CYP3A4; assay type: ADME
[10] = molecular target: T3, Nuclear receptor subfamily 1 group I member 2; test: Agonist activity at PXR at 10 uM; assay type: functional
Cytochrome P450 2C9 = Cytochrome P450 2C9 (Homo sapiens, UniProt P11712); test: Inhibition of CYP2C9; assay type: ADME
[11] = Blood clearance in C57BL/6 mouse; assay type: ADME, organism-based
[12] = Half life in C57BL/6 mouse; assay type: ADME, organism-based; conditions: in vivo

11-beta-hydroxysteroid dehydrogenase 1 (Homo sapiens, UniProt P28845), sequence (P28845 whole entry): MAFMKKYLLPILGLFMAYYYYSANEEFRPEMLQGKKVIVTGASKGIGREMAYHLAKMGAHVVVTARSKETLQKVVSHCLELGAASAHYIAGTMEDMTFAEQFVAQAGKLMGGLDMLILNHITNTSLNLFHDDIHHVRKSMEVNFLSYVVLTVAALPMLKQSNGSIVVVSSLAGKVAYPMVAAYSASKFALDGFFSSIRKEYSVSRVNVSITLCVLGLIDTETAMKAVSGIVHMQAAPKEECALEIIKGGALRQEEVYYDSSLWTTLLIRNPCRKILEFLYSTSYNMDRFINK
11-beta-hydroxysteroid dehydrogenase 1 (Mus musculus, UniProt P50172), sequence (P50172 whole entry): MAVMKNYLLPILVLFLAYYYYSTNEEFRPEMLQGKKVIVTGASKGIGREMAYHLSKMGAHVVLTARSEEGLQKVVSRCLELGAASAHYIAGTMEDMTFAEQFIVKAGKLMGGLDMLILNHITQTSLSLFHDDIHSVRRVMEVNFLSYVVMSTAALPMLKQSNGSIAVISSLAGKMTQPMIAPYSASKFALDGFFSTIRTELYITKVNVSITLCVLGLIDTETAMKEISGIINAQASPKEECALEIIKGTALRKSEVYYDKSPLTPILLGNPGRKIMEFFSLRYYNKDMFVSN
Cytochrome P450 3A4, sequence (P08684 whole entry): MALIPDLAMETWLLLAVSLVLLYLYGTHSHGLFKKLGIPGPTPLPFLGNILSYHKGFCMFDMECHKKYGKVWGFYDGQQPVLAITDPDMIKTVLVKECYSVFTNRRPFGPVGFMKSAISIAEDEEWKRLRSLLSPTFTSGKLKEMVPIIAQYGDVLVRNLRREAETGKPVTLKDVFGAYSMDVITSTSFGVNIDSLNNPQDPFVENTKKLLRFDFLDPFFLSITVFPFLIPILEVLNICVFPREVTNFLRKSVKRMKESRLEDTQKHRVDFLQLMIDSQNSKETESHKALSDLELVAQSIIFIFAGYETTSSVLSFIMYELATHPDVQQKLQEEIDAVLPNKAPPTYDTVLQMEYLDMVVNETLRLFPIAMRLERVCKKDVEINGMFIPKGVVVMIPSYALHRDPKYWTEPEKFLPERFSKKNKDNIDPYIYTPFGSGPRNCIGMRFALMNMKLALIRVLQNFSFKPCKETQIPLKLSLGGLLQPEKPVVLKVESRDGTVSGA
Cytochrome P450 2D6, sequence (P10635 whole entry): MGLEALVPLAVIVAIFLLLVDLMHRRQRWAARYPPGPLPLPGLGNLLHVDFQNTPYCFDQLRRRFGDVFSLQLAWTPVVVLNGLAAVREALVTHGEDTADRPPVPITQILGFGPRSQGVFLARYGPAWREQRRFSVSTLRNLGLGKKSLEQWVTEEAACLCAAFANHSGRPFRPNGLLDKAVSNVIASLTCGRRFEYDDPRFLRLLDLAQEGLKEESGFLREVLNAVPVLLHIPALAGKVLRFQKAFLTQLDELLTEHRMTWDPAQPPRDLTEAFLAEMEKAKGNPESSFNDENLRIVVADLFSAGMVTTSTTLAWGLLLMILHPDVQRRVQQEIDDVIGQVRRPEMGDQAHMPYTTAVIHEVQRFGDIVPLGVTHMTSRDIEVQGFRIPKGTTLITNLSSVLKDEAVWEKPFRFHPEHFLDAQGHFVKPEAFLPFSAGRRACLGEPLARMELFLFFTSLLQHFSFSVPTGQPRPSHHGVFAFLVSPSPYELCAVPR
Cytochrome P450 2C9, sequence (P11712 whole entry): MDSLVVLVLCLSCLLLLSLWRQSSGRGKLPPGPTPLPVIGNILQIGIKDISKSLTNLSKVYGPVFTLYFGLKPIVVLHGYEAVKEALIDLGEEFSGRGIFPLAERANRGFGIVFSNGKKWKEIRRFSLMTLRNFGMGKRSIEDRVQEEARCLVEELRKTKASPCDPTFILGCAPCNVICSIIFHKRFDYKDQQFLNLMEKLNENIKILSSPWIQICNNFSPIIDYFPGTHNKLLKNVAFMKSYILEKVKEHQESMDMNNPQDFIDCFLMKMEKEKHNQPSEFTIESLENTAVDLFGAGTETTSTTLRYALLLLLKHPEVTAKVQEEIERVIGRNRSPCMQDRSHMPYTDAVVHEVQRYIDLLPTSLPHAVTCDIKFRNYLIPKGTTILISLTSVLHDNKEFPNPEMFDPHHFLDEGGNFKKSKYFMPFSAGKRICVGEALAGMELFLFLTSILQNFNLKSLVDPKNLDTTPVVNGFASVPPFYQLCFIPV

SMILES | IC50 [1] | IC50 [3] | IC50 [4] | IC50 [6] | bioavailability [8] | IC50 (Cytochrome P450 2D6) | EC50 [9] | IC50 (Cytochrome P450 3A4) | Activity [10] | IC50 (Cytochrome P450 2C9) | clearance [11] | half-life [12] | inhibition in vivo at 10 mg/kg (Mus musculus [2]) | inhibition in vivo at 10 mg/kg (Mus musculus [5]) | inhibition in vivo at 10 mg/kg (Mus musculus [7])
C1CCCn2c(nnc2C23CC4CC(CC(C4)C2)C3)CC1 | 98 nM | > 4 µM | 7.8 nM | > 4 µM |  |  |  |  |  |  |  |  | 21% | 31% | 
Cn1c(-c2ccc(-c3cnccn3)cc2Cl)nnc1C1(c2ccc(Cl)cc2)CC(F)C1 (stereo not given) | 2.3 nM | > 4 µM | 5.5 nM | > 4 µM | 96% | 25 µM | > 30 µM | 36 µM | 23% | 26 µM | 5 mL/min/kg | 408 min | 95% |  | 80%
Cn1c(-c2ccc(C(N)=O)cc2Cl)nnc1C1(c2ccc(Cl)cc2)CCC1 | 1 nM | > 4 µM | < 1 nM | > 4 µM |  |  | > 30 µM |  | 16% |  |  |  | 57% |  | 12%
Cn1c(-c2ccc(C(=O)O)cc2Cl)nnc1C1(c2ccc(Cl)cc2)CCC1 | 19 nM | > 4 µM | 11 nM | > 4 µM |  |  | 18 µM |  | 28% |  |  |  | 90% |  | 38%
Cn1c(-c2ccc(C(N)=O)cc2C(N)=O)nnc1C1(c2ccc(Cl)cc2)CCC1 | 150 nM | > 4 µM | 2.2 nM | > 4 µM |  |  | > 30 µM |  | -7% |  |  |  | -11% |  | 0%
Cn1c(-c2ccc(C(=O)N3CCCC3)cc2)nnc1C1(c2ccc(Cl)cc2)CCC1 | 130 nM | > 4 µM | 650 nM | > 4 µM |  |  | > 30 µM |  | 10% |  |  |  | 24% |  | 0%
Cc1cc(C(=O)Nc2ccc(-c3nnc(C4(c5ccc(Cl)cc5)CCC4)n3C)cc2)c(C)o1 | < 1 nM | > 4 µM | 9.5 nM | > 4 µM |  |  | > 30 µM |  | 18% |  |  |  | 91% |  | 81%

Now from value to molecule, other results behind:

IC50 [1] | IC50 [3] | IC50 [4] | IC50 [6] | bioavailability [8] | IC50 (Cytochrome P450 2D6) | EC50 [9] | IC50 (Cytochrome P450 3A4) | Activity [10] | IC50 (Cytochrome P450 2C9) | clearance [11] | half-life [12] | SMILES | inhibition in vivo at 10 mg/kg (Mus musculus [2]) | inhibition in vivo at 10 mg/kg (Mus musculus [5]) | inhibition in vivo at 10 mg/kg (Mus musculus [7])
< 1 nM | > 4 µM | 2.3 nM | > 4 µM | 30% | 16 µM | > 30 µM | 10 µM | 23% | 13 µM | 54 mL/min/kg | 42 min | Cn1c(-c2ccc(-c3cnccn3)cc2)nnc1C1(c2ccc(Cl)cc2)CCC1 | 93% |  | 79%
1.5 nM | > 4 µM | 1.5 nM | > 4 µM |  |  | > 30 µM |  | 14% |  |  |  | Cn1c(-c2ccc(-c3ccc(Cl)nn3)cc2)nnc1C1(c2ccc(Cl)cc2)CCC1 | 40% |  | -7%
3 nM | > 4 µM | 540 nM | > 4 µM |  |  | > 30 µM |  | 11% |  |  |  | Cn1c(-c2ccc(C(=O)NC(C)(C)C)cc2)nnc1C1(c2ccc(Cl)cc2)CCC1 | 71% |  | 5%
6 nM | > 4 µM | 11 nM | > 4 µM |  |  | > 30 µM |  | 35% |  |  |  | Cn1c(-c2ccc(-c3ccon3)cc2)nnc1C1(c2ccc(Cl)cc2)CCC1 | 95% |  | 67%
2.6 nM | > 4 µM | 1.5 nM | > 4 µM |  |  | > 30 µM |  | 7% |  |  |  | Cn1c(-c2ccc(-c3cncnc3)cc2)nnc1C1(c2ccc(Cl)cc2)CCC1 | 46% |  | -4%
1.7 nM | > 4 µM | 2.8 nM | > 4 µM |  |  | 4.8 µM |  | 74% |  |  |  | Cn1c(-c2ccc(-c3cnccn3)cc2F)nnc1C1(c2ccc(Cl)cc2)CCC1 | 91% |  | 81%
9.1 nM | > 4 µM | 5.8 nM | > 4 µM |  |  | > 30 µM |  | 21% |  |  |  | CC(=O)Nc1ccc(-c2nnc(C3(c4ccc(Cl)cc4)CCC3)n2C)cc1 | 59% |  | 10%
2.2 nM | > 4 µM | 2.2 nM | > 4 µM |  |  | > 30 µM |  | 3% |  |  |  | Cn1c(-c2ccc(-c3cnc(N)nc3)cc2)nnc1C1(c2ccc(Cl)cc2)CCC1 | 34% |  | -5%
